Measured values as given in US7557213B2, “Substituted quinolones and methods of use” (ChemoCentryx, Inc., priority 2005, dated 2009).

What follows are compounds tested against T1, CCXCKR2 receptor (Homo sapiens, UniProt P25106) (assay: Displacement of 125I-labeled SDF-1 from the CCXCKR2 receptor on MCF-7 and/or CCXCKR2-transfected MDA-MB-435S cells (radioligand binding, filtration)). Details: not given.
T1 construct: expressed in transfected cells; host or cells: MDA-MB-435S transfected with pcDNA3.1(+)-hRDC1 and/or MCF-7 (endogenous receptor)
T1 sequence (P25106 whole entry): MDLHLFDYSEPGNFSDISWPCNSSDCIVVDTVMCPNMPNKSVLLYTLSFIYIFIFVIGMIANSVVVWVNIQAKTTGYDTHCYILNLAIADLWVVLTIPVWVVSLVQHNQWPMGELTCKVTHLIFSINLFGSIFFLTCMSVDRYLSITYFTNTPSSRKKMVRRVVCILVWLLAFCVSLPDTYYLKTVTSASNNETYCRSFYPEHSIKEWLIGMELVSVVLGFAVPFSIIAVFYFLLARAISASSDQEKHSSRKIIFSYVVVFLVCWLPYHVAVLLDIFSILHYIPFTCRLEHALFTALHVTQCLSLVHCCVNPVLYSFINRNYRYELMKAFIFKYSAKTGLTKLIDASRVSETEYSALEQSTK
For `Cc1ccc(C(=O)c2cn(CC3CCCCC3)c3ccccc3c2=O)cc1C` [Example 39], the IC50 was < 100 nM.

Same assay, conditions: 125I SDF-1, 3 hr at 4° C., MCF-7 and/or MDA-MB-435S cells; read-out: Activity (concentration displacing at least 50% of the SDF-1 from the CCXCKR2 receptor)
In the case of `Cc1cc(C(=O)c2cn(Cc3cccc(Br)n3)c3ccccc3c2=O)ccc1F` [Example 203], the IC50 is reported as < 100 nM. `COc1ncc(C(=O)c2cn(Cc3cccc(Br)n3)c3ccccc3c2=O)cc1C` [Example 198] was tested, and the IC50 was < 100 nM. `Cc1ccc(C(=O)c2cn(Cc3ccccc3C)c3cc4c(cc3c2=O)OCCO4)cc1C` [Example 6] gave an IC50 of 500 to 20000 nM. For `Cc1ccc(C(=O)c2cn(Cc3ccccc3F)c3cc4c(cc3c2=O)OC(F)(F)O4)cc1C` [Example 19], the IC50 was 500 to 20000 nM. Work on `Cc1ccc(C(=O)c2cn(Cc3ccncc3)c3cc4c(cc3c2=O)OCO4)cc1C` [Example 3] yielded an IC50 of 500 to 20000 nM. `Cc1ccc(C(=O)c2cn(Cc3cccc(Br)n3)c3ccccc3c2=O)c(C)n1` [Example 185] was tested, and the IC50 was < 100 nM. `O=C(c1ccc2c(c1)OCCO2)c1cn(Cc2cccc(C(F)(F)F)n2)c2ccccc2c1=O` [Example 229] showed an IC50 of 100 to 500 nM. With `Cc1ccc(C(=O)c2cn(Cc3cccc(C#N)n3)c3ccccc3c2=O)nc1C` [Example 80] the IC50 was < 100 nM. In the case of `O=C(c1ccc2c(c1)CCO2)c1cn(Cc2cccc(Br)n2)c2ccccc2c1=O` [Example 131], the IC50 is reported as < 100 nM. Compound `Cc1cccc(Cn2cc(C(=O)c3ccncc3)c(=O)c3ccccc32)c1` [Example 17] has an IC50 of 500 to 20000 nM. With `O=C(c1ccc(C(F)(F)F)nc1)c1cn(Cc2cccc(Br)n2)c2ccccc2c1=O` [Example 133] the IC50 was < 100 nM. In the case of `Cc1cccc(Cn2cc(C(=O)c3ccc(C)c(C)c3)c(=O)c3nc(C)ccc32)n1` [Example 130], the IC50 is reported as < 100 nM. In the case of `COc1ccc(C(=O)c2cn(Cc3cccc(Br)n3)c3nc(C)ccc3c2=O)cc1C` [Example 143], the IC50 is reported as < 100 nM. In the case of `Cc1ccc(C(=O)c2cn(Cc3ncon3)c3ccccc3c2=O)cc1C` [Example 29], the IC50 is reported as < 100 nM. With `Cc1ccc(C(=O)c2cn(Cc3cnccn3)c3ccccc3c2=O)cc1C` [Example 57] the IC50 was < 100 nM. For `O=C(c1ccc2c(c1)OCCO2)c1cn(Cc2cccc(C(F)(F)F)c2)c2ccccc2c1=O` [Example 232], the IC50 was 100 to 500 nM. `Cc1ncc(C(=O)c2cn(Cc3cccc(Br)n3)c3ccccc3c2=O)n1C` [Example 152] showed an IC50 of 500 to 20000 nM. For `Cc1ccc(C(=O)c2cn(Cc3cccc(Br)c3)c3ccccc3c2=O)cn1` [Example 227], the IC50 was < 100 nM. For `Cc1cc(Cn2cc(C(=O)c3ccc(C)c(C)c3)c(=O)c3ccccc32)no1` [Example 30, 3-(3,4-Dimethyl-benzoyl)-1-(5-methyl-isoxazol-3-ylmethyl)-1H-quinolin-4-one], the IC50 was 100 to 500 nM. Compound `Cc1cc(C(=O)c2cn(C(C)c3cccc(Br)n3)c3ccccc3c2=O)cnc1C` (stereo not drawn) [Example 84] has an IC50 of 500 to 20000 nM. With `COc1ccc(C(=O)c2cn(Cc3cccc(Br)n3)c3ncccc3c2=O)cc1OC` [Example 193] the IC50 was < 100 nM. For `Cc1ccc(C(=O)c2cn(Cc3cccc(Br)n3)c3ccccc3c2=O)nc1C` [Example 64], the IC50 was < 100 nM. `Cc1cccc(C(=O)c2cn(Cc3cccc(Br)n3)c3ccccc3c2=O)n1` [Example 122] gave an IC50 of 100 to 500 nM. For `O=C(c1ccc(Cl)c(F)c1)c1cn(Cc2cccc(Br)n2)c2ccccc2c1=O` [Example 179], the IC50 was < 100 nM. With `Cc1nc(C(=O)c2cn(Cc3cccc(Br)n3)c3ccccc3c2=O)sc1C` [Example 147] the IC50 was < 100 nM. `Cc1cccc(Cn2cc(C(=O)c3cccnc3)c(=O)c3ccccc32)c1` [Example 34, 1-(3-Methyl-benzyl)-3-(pyridine-3-carbonyl)-1H-quinolin-4-one] showed an IC50 of 500 to 20000 nM. `CN(C)Cc1ccccc1C(=O)c1cn(Cc2cccc(Br)n2)c2ccccc2c1=O` [Example 129] was tested, and the IC50 was < 100 nM. `COc1ccc(C(=O)c2cn(Cc3cccc(Br)n3)c3ccccc3c2=O)cc1` [Example 144] was tested, and the IC50 was < 100 nM. With `Cc1ccc2c(n1)c(=O)c(C(=O)c1ccc(C)c(C)c1)cn2Cc1cccc(Br)n1` [Example 119] the IC50 was < 100 nM. In the case of `CNCc1ccc(C(=O)c2cn(Cc3cccc(Br)n3)c3ccccc3c2=O)cc1` [Example 153], the IC50 is reported as 100 to 500 nM. With `COc1ccc(C(=O)c2cn(Cc3cccc(C(F)(F)F)n3)c3ncccc3c2=O)cc1C` [Example 195] the IC50 was < 100 nM. In the case of `O=C(O)c1ccccc1C(=O)c1cn(Cc2cccc(Br)n2)c2ccccc2c1=O` [Example 138], the IC50 is reported as < 100 nM. `Cc1cccc(C(=O)c2cn(Cc3cccc(Br)n3)c3ccccc3c2=O)c1C` [Example 103] was tested, and the IC50 was < 100 nM. For `Cc1cc(C(=O)c2cn(Cc3cccc(Br)n3)c3ccccc3c2=O)ccc1Cl` [Example 182], the IC50 was < 100 nM. In the case of `CCc1ccc(C(=O)c2cn(Cc3cccc(C)n3)c3ccccc3c2=O)cn1` [Example 212], the IC50 is reported as < 100 nM. With `O=C(c1ccc2c(n1)CCCC2)c1cn(Cc2cccc(Br)n2)c2ccccc2c1=O` [Example 89] the IC50 was < 100 nM. For `COc1cc(C(=O)c2cn(Cc3cccc(Br)n3)c3ccccc3c2=O)ccc1Cl` [Example 204], the IC50 was < 100 nM. With `CSc1cccc(Cn2cc(C(=O)c3ccc(C)c(C)c3)c(=O)c3ccccc32)n1` [Example 77] the IC50 was < 100 nM. For `Cc1cc(C)cc(C(=O)c2cn(Cc3cccc(Br)n3)c3ccccc3c2=O)c1` [Example 104], the IC50 was < 100 nM. `O=C(c1ccc2c(c1)OCCO2)c1cn(Cc2cccc(Br)c2)c2ccccc2c1=O` [Example 231] was tested, and the IC50 was < 100 nM. `Cc1ccc(C(=O)c2cn(Cc3cccc(N)n3)c3ccccc3c2=O)nc1C` [Example 90] was tested, and the IC50 was < 100 nM. `O=C(c1ccc(Cl)nc1)c1cn(Cc2cccc(Br)n2)c2ccccc2c1=O` [Example 188] was tested, and the IC50 was < 100 nM. In the case of `COc1ccc(C(=O)c2cn(Cc3cccc(Br)n3)c3ccccc3c2=O)cc1F` [Example 145], the IC50 is reported as < 100 nM. In the case of `COc1ccc(C(=O)c2cn(Cc3cccc(C)n3)c3ncccc3c2=O)cc1` [Example 161], the IC50 is reported as < 100 nM. `Cc1ccc(C)c(C(=O)c2cn(Cc3cccc(Br)n3)c3ccccc3c2=O)c1` [Example 102] was tested, and the IC50 was < 100 nM. `Cc1ccc(C(=O)c2cn(Cc3ncccn3)c3ccccc3c2=O)cc1C` [Example 56] was tested, and the IC50 was < 100 nM. With `Cc1ccc(C(=O)c2cn(Cc3cscn3)c3ccccc3c2=O)cc1C` [Example 31] the IC50 was < 100 nM. In the case of `Cc1ccc(C(=O)c2cn(Cc3cccc(Br)n3)c3ccccc3c2=O)c(C)c1` [Example 101], the IC50 is reported as < 100 nM. In the case of `Cc1ccc(C(=O)c2cn(Cc3ncccc3F)c3ccccc3c2=O)cc1C` [Example 37], the IC50 is reported as < 100 nM. For `Cc1ccc(C(=O)c2cn(Cc3cccc(NC(=O)C(F)(F)F)n3)c3ccccc3c2=O)cc1C` [Example 87], the IC50 was < 100 nM. In the case of `Cc1ccc(C(=O)c2cn(Cc3cccc(C(=O)O)n3)c3ccccc3c2=O)cc1C` [Example 83], the IC50 is reported as 500 to 20000 nM. With `Nc1ccc(C(=O)c2cn(Cc3cccc(Br)n3)c3ccccc3c2=O)cn1` [Example 223] the IC50 was 500 to 20000 nM. For `COc1ccc(C(=O)c2cn(Cc3cccc(C(F)(F)F)c3)c3ncccc3c2=O)cc1C` [Example 196], the IC50 was < 100 nM. Work on `Cc1cc(C(=O)c2cn(Cc3cccc(CO)n3)c3ccccc3c2=O)cnc1C` [Example 125] yielded an IC50 of 100 to 500 nM. In the case of `Cc1ccnc(C(=O)c2cn(Cc3cccc(Br)n3)c3ccccc3c2=O)c1` [Example 150], the IC50 is reported as 100 to 500 nM. For `Cc1ccc2c(=O)c(C(=O)c3ccc(C)c(C)c3)cn(Cc3cccc(Br)n3)c2n1` [Example 106], the IC50 was < 100 nM. For `CN(C)C(=O)c1cccc(C(=O)c2cn(Cc3cccc(Br)n3)c3ccccc3c2=O)c1` [Example 180], the IC50 was < 100 nM. Work on `Cc1cccc(Cn2cc(C(=O)c3ccc(C(F)(F)F)nc3)c(=O)c3ccccc32)n1` [Example 177] yielded an IC50 of 100 to 500 nM. In the case of `COC(=O)c1ccccc1C(=O)c1cn(Cc2cccc(Br)n2)c2ccccc2c1=O` [Example 155], the IC50 is reported as < 100 nM. For `Cc1cccc(Cn2cc(C(=O)c3ccc(C)c(C)c3)c(=O)c3cc4c(cc32)OCCO4)c1` [Example 5], the IC50 was 500 to 20000 nM. With `COc1ccc(C(=O)c2cn(Cc3cccc(Br)n3)c3ccccc3c2=O)cc1C` [Example 98] the IC50 was < 100 nM. Work on `COCc1cccc(Cn2cc(C(=O)c3ccc(C)c(C)c3)c(=O)c3ccccc32)n1` [Example 111] yielded an IC50 of 100 to 500 nM. `Cc1ccc(C(=O)c2cn(Cc3cccc(Br)n3)c3c(C)ccnc3c2=O)cc1C` [Example 116] gave an IC50 of 500 to 20000 nM. `COc1ccc(C(=O)c2cn(Cc3cccc(Br)n3)c3cccnc3c2=O)cc1C` [Example 201] gave an IC50 of 500 to 20000 nM. Work on `O=C(c1cccc(C2OCCCO2)c1)c1cn(Cc2cccc(Br)n2)c2ccccc2c1=O` [Example 135] yielded an IC50 of 500 to 20000 nM. With `Cc1ccc(C(=O)c2cn(Cc3ccccc3F)c3ccccc3c2=O)cc1C` [Example 4] the IC50 was < 100 nM. `COc1ccc(C(=O)c2cn(Cc3cccc(C)n3)c3nc(C)c(C)cc3c2=O)cc1F` [Example 199] was tested, and the IC50 was 500 to 20000 nM. Compound `COc1ccc(C(=O)c2cn(Cc3cccc(N)n3)c3ccccc3c2=O)cc1C` [Example 209] has an IC50 of 100 to 500 nM. With `Cc1cc(C(=O)c2cn(Cc3cccc(Br)n3)c3ccccc3c2=O)cnc1C` [Example 54] the IC50 was < 100 nM. For `Cc1ccc(C(=O)c2cn(Cc3cccc(C4CC4)n3)c3ccccc3c2=O)cc1C` [Example 74], the IC50 was < 100 nM. `Cc1ccc(C(=O)c2cn(Cc3cccnc3)c3ccccc3c2=O)cc1C` [Example 10] gave an IC50 of 500 to 20000 nM. Compound `COc1ccc(C(=O)c2cn(Cc3cccc(Br)n3)c3ccc(C)nc3c2=O)cc1F` [Example 237] has an IC50 of 500 to 20000 nM. For `Cc1cccc(Cn2cc(C(=O)c3ccccc3Br)c(=O)c3ccccc32)n1` [Example 176], the IC50 was < 100 nM. In the case of `O=C(c1ccccc1C1OCCCO1)c1cn(Cc2cccc(Br)n2)c2ccccc2c1=O` [Example 126], the IC50 is reported as < 100 nM. For `Nc1cccc(Cn2cc(C(=O)c3ccc4c(c3)OCCO4)c(=O)c3ccccc32)n1` [Example 230], the IC50 was 100 to 500 nM. `O=C(c1ncc(Br)cn1)c1cn(Cc2cccc(Br)n2)c2ccccc2c1=O` [Example 128] gave an IC50 of 500 to 20000 nM. In the case of `CC(C)(C)c1ccc(C(=O)c2cn(Cc3cccc(Br)n3)c3ccccc3c2=O)cc1` [Example 114], the IC50 is reported as < 100 nM. With `Cc1ccc(C(=O)c2cn(-c3ccccc3)c3ccccc3c2=O)cc1C` [Example 38] the IC50 was 500 to 20000 nM. `N#Cc1cccc(Cn2cc(C(=O)c3ccc4c(c3)OCCO4)c(=O)c3ccccc32)n1` [Example 228] was tested, and the IC50 was < 100 nM. With `COc1cccc(Cn2cc(C(=O)c3ccc(C)c(C)c3)c(=O)c3ccccc32)n1` [Example 69] the IC50 was < 100 nM.
